Experiments:
[1] = test system: CYP1A2, CYP2A6, CYP2C9, CYP2C19, CYP2D6, CYP2E1, CYP3A4; assay: in vitro; conditions: human, microsomes
Source text: Human livers, HLM141, HLM143, and HLM144 were selected from the University of Washington Human Liver Bank for this study. […] The actual concentrations used for each of the other probes are specified below. […] The seven isoforms and the metabolic pathway of each of the probes used to monitor specific isoform activity are listed below.

[2] = Effect of gemcabene on simvastatin pharmacokinetics (active HMG-Co-A reductase inhibitor concentration); type: in vivo, human; conditions: simvastatin alone vs in combination with gemcabene

In the case of `CC(C)(CCCCOCCCCC(C)(C)C(=O)O)C(=O)O` [Gemcabene, 6,6′-oxybis(2,2-dimethylhexanoic acid)], the IC50 [1] is reported as > 454 mg/L and the “effect on active HMG-Co-A reductase inhibitor pharmacokinetics after simvastatin (80 mg)” value [2] is reported as “lowers Cmax but has no effect on AUC”.
